Data: US20240018132A1, “5-HYDROXY-1,4-NAPHTHALENEDIONE FOR USE IN THE TREATMENT OF CANCER” (GODAVARI BIOREFINERIES LIMITED, priority 2020, published 2024)

How the values were obtained:
Format in all cases: cell-based
[1] = system: MDAMB231; test: In vitro antiproliferative assay (MTT assay), breast cancer cell line; conditions: Homo sapiens, MDA-MB-231, 48 h, MTT assay, breast cancer MDAMB231, 48 hrs drug incubation
Procedure, shortened: (§1)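 Compound exposure lasted 48 h at 37 °C in 5% CO2, following a 24 h attachment period; DMSO stocks were 0.1 M. Metabolic reduction of MTT (0.5 mg/ml, 4 h), solubilized in DMSO, gave viability, plotted as log % viability versus log drug concentration.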

[2] = system: PC3; test: In vitro antiproliferative assay (MTT assay), prostate cancer cell line; conditions: Homo sapiens, PC-3, 48 h, MTT assay, prostate cancer PC3, 48 hrs drug incubation
Procedure, shortened: as §1

[3] = system: MDAMB231; test: Soft agar colony-formation assay, breast cancer; conditions: for anticancer activity in comparison with cisplatin, soft agar, breast cancer cell line: FIG. 51, MDAMB231; for IC50: Homo sapiens, MDA-MB-231, 168 h, Soft Agar Assay, 1 week, Alamar Blue
Experimental: (§2) The Soft Agar Colony-formation Assay is an anchorage-independent growth assay in soft agar, which is one of the most stringent assays for detecting malignant transformation of cells. For this assay, malignant cells are cultured with appropriate controls in soft agar medium for 1-2 weeks. Following this incubation period, formed colonies can either be analyzed morphologically using cell stain and quantifying the number of colonies formed.
(§3) Briefly, for Soft Agar Assay a mixture of 50 ul of 2× medium (taken appropriately as per cell line) and 50 ul of 1.2% Bacto Agar were plated on to each well of 96 well micro titer assay plate. 10 ul of cells (of specific plating efficiency pre standardized for respective cell line) were mixed with 20 ul of 2× medium and 30 ul of 0.8% of Bacto Agar and 1.6 ul of drug (of appropriate concentration) in a vial and transferred to the solidified pre layers of the assay plates. The cells were then allowed to grow and form colonies at 37° C. and 5% CO2 for 1 week. An intermittent feeding with 50 ul of appropriate 2× medium was performed after 3 days of experimental set up. 16 ul of Alamar Blue (1.5 mg/ml) was then added to all the wells to quantify the developed colonies. The plates were incubated for 24 hrs at 37° C. Absorbance was then measured at 630 nm. XY graph of log Percent viability was then plotted against log drug concentration.
(§4) Following plating efficiencies were standardized for Soft Agar Assay: […]

[4] = system: PC3; test: Soft agar colony-formation assay, prostate cancer; conditions: for anticancer activity in comparison with cisplatin, soft agar, prostate cancer cell line: FIG. 52, PC3; for IC50: Homo sapiens, PC-3, 168 h, Soft Agar Assay, 1 week, Alamar Blue
Experimental: as §2, §3, §4

[5] = system: Human lymphocytes; test: Lymphocyte assay (MTT on normal cells); conditions: human peripheral blood lymphocytes, MTT procedure; for IC50: Lymphocyte
Procedure, shortened: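 Lymphocytes from human peripheral blood isolated by density-gradient centrifugation on HiSep LSM 1077, washed in D.P.B.S; only cells with purity and viability above 95% used. Seeded at 0.7 million/ml and assessed by MTT.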

[6] = system: MDAMB231; test: Wound Healing Assay (WHA), breast cancer cell line; conditions: IC10 conc. of compound
Experimental: (§5) Wound Healing Assay (WHA) determines the ability of cancer stem cells to heal the wound formed in a confluent monolayer.
(§6) Procedure: 0.35×10^6 cells were plated in each well of 6 Tissue Culture well plates. The plate was incubated for 48 hrs at 37° C., 5% CO2. […] IC10 conc. of the respective compound was added into each well. The plates were incubated at 37° C., 5% CO2 and the width of scratch was measured at various time intervals such as 6, 24 and 48 hours. Average of 3 distances were taken for each time point using IS camera Measure. A plot of average width of scratch in micrometer was plotted against the time interval after treatment.

[7] = system: PC3; test: Wound Healing Assay (WHA), prostate cancer cell line; conditions: IC10 conc. of compound
Experimental: as §5, §6

[8] = system: Aldehyde dehydrogenase (ALDH); test: Aldehyde Dehydrogenase (ALDH) assay, ELISA kit; conditions: MDAMB231, 48 hrs
Excerpt: Aldehyde dehydrogenases (ALDH) are a family of enzymes that catalyze the metabolism of exogenous and endogenous aldehydes, preventing the accumulation of potentially reactive and toxic aldehydes and their metabolites. In addition to their role in aldehyde metabolism, ALDH enzymes also play critical roles in other cellular processes such as cell proliferation, differentiation, and survival. ALDH also serves as a marker for certain stem cell populations including hematopoietic stem cells and certain cancer stem cells. ALDH concentration was determined by using ([…] Dx) ELISA kit by following protocol: • 1 Standards (50 μl)/sample (40 μl) were added to the respective wells, (except Blank). • 2. (10 μl) Antibody-Biotin conjugate was then added in each sample well (except Blank). • 3. (50 μl) of Horse Radish Peroxidase (HRP) Conjugate was then added to each well (except Blank). • 4. The plates were incubated for one hour at 37° C. in the incubator. • 5. Wash (4 times with wash buffer) and blot residual buffer by firmly tapping the plate on the absorbent paper. Wipe off any liquid from the bottom of the microtiter wells as any residue can interfere in the reading step. • 6. Add TMB substrate A (50 μl) and then TMB substrate B (50 μl) to each well including Blank as well. • 7. Incubate for 10 mins at 37° C. in dark. • 8. Add (50 μl) stop solution. Wells should turn from blue to yellow. • 9. Read absorbance at 450 nm. • 10 A X-Y graph of concentration vs optical density was plotted. ALDH concentration was calculated by substituting optical density values in the regression analysis equation.

IC50 [1]	IC50 [2]	IC50 [3]	IC50 [4]	Compound	anticancer activity in comparison with cisplatin, soft agar, breast cancer cell line [3]	anticancer activity in comparison with cisplatin, soft agar, prostate cancer cell line [4]	IC50 [5]	% inhibition of Wound Healing for Breast Cancer Cell line (MDAMB231) after 48 hrs [6]	% inhibition of Wound Healing for Prostate Cancer Cell line (PC3) after 48 hrs [7]	% inhibition of ALDH on Breast Cancer Cell line (MDAMB231) after 48 hrs [8]	Activity on Lymphocytes (IC50) [5]
951 nM	1680 nM	353 nM	422 nM	COc1ccc(NC2=CC(=O)c3c(OCCN4CCOCC4)cccc3C2=O)cc1OC [Formula 40, 5-(2-morpholinoethoxy)-2-(3,4-dimethoxyphenylamino) naphthalene-1,4-dione]	higher anticancer activity in comparison with cisplatin	higher anticancer activity in comparison with cisplatin	13200 nM	45.84%	48.56%	62.73%	–
3130 nM	4320 nM	3880 nM	3270 nM	O=C1C(NC2CCCCC2)=CC(=O)c2c(OCCN3CCOCC3)cccc21 [Formula 52]	higher anticancer activity in comparison with cisplatin	higher anticancer activity in comparison with cisplatin	–	37.42%	34.7%	74.69%	No activity

Compound	IC50 [1]	IC50 [2]	IC50 [3]	IC50 [4]	anticancer activity in comparison with cisplatin, soft agar, breast cancer cell line [3]	anticancer activity in comparison with cisplatin, soft agar, prostate cancer cell line [4]	IC50 [5]	% inhibition of Wound Healing for Breast Cancer Cell line (MDAMB231) after 48 hrs [6]	% inhibition of Wound Healing for Prostate Cancer Cell line (PC3) after 48 hrs [7]	% inhibition of ALDH on Breast Cancer Cell line (MDAMB231) after 48 hrs [8]	Activity on Lymphocytes (IC50) [5]
O=C1C(c2ccc3c(c2)OCO3)=CC(=O)c2c(OCCCCN3CCOCC3)cccc21 [Formula 2, 5-(4-morpholinobutoxy)-2-(benzo[d][1,3]dioxol-6-yl)naphthalene-1,4-dione]	566 nM	344 nM	2080 nM	2650 nM	higher anticancer activity in comparison with cisplatin	higher anticancer activity in comparison with cisplatin	11500 nM	53.69%	45.25%	76.09%	–
